Legend:
[1] = Solubility in tetrahydrofuran; type: physicochemical; conditions: 1 part by weight of compound in 100 parts by weight of tetrahydrofuran
From the text: (§1) Evaluation was made by three ranks, i.e., by 0 if the composition dissolved completely and provided a clear mixture, by ▴ if it almost dissolved but provided a slightly cloudy mixture and by X if it little dissolved.

[2] = Compatibility with the urethane prepolymer (1); type: physicochemical; conditions: 1 part by weight of compound in 100 parts by weight of urethane prepolymer (1)
From the text: as §1

[3] = Compatibility with the epoxy resin (EPICOAT 828); type: physicochemical; conditions: 1 part by weight of compound in 100 parts by weight of epoxy resin (EPICOAT 828)
From the text: as §1

[4] = radiation at 254 nm; cited from earlier work

SMILES | Solubility THF [1] | Solubility Prepolymer [2] | Solubility Epoxy Resin [3] | quantum yield [4]
CC(=NOC(=O)NCCCCCCNC(=O)ON=C(C)c1ccccc1)c1ccccc1 [Example 1] | ◯ |  |  | 
C=C(C)C(=O)OCCNC(=O)ON=C(C)c1ccccc1 [Example 4] | ◯ | ◯ | ◯ | 
NC(=O)OCc1ccccc1[N+](=O)[O-] [o-nitrobenzyl carbamate] |  |  |  | about 0.13

From patent publication US20060035995A1, “Photosensitive amine generator, photocurable composition and photoreactive adhesive composition” (Sekisui Chemical Co., Ltd., priority 2000, published 2006)
